Measurements published in US20260315467A1, “PHARMACEUTICAL COMBINATION OF FAK INHIBITOR AND EGFR-TKI, AND USE” (INXMED (NANJING) CO., LTD., priority 2022, published 2026).

How the values were obtained:
[1] = test system: lung cancer KPL cells; test: White light microscope observation of lung cancer KPL cells after 48 h drug incubation (Examples 1-3); format: cell-based
[2] = test system: lung cancer cells HCC827; test: Apoptosis of HCC827 cells after FAK silencing combined with AZD9291 (Annexin V, flow cytometer); format: cell-based; conditions: FAK siRNA 50 nM, then 0.3 nM AZD9291, 48 hours
Description: In an in vitro assay, siRNA technology was used to reduce the expression level of FAK, which was combined with AZD9291 for 48 hours; a flow cytometer was used to detect the apoptosis in control and FAK-silenced cells.
(§1) Assay antibodies: Recombinant Alexa Fluor® 647 Anti-Calreticulin antibody (Abcam, ab196159), Annexin V apoptosis detection kit (Invitrogen, A35110).
HCC827 cells were transfected with control siRNA or FAK siRNA at a final concentration of 50 nM, respectively. After 24 hours of transfection, 0.3 nM AZD9291 was added and the cells were treated for 48 hours. The cells were stained using the Annexin V kit and detected using a flow cytometer. The values of early and late apoptosis of the cells were compared with those of the DMSO control group, and Graphpad 8.0 was used for graphing.

[3] = test system: colon cancer MC38 cell; test: In vivo anti-tumor efficacy in subcutaneous allograft tumor model of colon cancer MC38 cell in C57BL/6 mice; set-up: species or system mouse; conditions: PD-L1 antibody 5 mg/kg i.p. BIW
Description: Mice: Female C57BL/6 mice aged 6-8 weeks were purchased from Shanghai Slack Laboratory Animal Co., Ltd. After the animals arrived, they were raised for acclimatization in the assay environment before the assay. The animals were raised in cages (5 animals per cage) with IVC (independent air supply system) in a SPF animal room. All the cages, padding and drinking water were sterilized before use. All the experimenters wore protective clothing and latex gloves when operating in the animal room. The animal information card for each cage indicated the number, sex, strain, receiving date, administration plan, assay number, group and assay start date of the animals in the cage. […]
Colorectal cancer cells MC38 (from Nanjing Kebai Biotechnology Co., Ltd., article number: CBP60825) were maintained and passaged by InxMed (Nanjing) Co., Ltd. The cells were cultured in monolayer in vitro, and the culture conditions were DMEM medium with 10% fetal bovine serum, 37° C. and 5% CO2 incubator. […] When the cells were in exponential growth period and the saturation reached 80% to 90%, the cells were collected, counted and inoculated. […]
The diameter of a tumor was measured with a vernier caliper 3 times a week. […]
Referring to the tumor volume on the first day after grouping, the tumor growth inhibition rate TGI (%) was calculated according to the following formula. […]

[4] = test system: Calreticulin; test: Calreticulin release and exposure in HCC827 cells after FAK silencing combined with AZD9291; format: cell-based; conditions: FAK siRNA 50 nM, then 0.3 nM AZD9291, 48 hours
Description: In an in vitro assay, siRNA technology was used to reduce the expression level of FAK, which was combined with AZD9291 for 48 hours; a flow cytometer was used to detect the expression of Calreticulin, the main target of ICD.
as §1
HCC827 cells were transfected with control siRNA or FAK siRNA at a final concentration of 50 nM, respectively. After 24 hours of transfection, 0.3 nM AZD9291 was added and the cells were treated for 48 hours. The Calreticulin antibody was used for fluorescent staining, and the staining results were analyzed by a flow cytometer.

[5] = Example 1, IN10018 10 μM, AZD9291 10 μM, or both
[6] = Example 3, IN10018 10 μM, Alflutinib 4.7 μM, or both
[7] = Example 2, IN10018 10 μM, Almonertinib 4.7 μM, or both

Structure (SMILES) | condition of cells under microscope [1, 5] | late apoptosis in the FAK silencing group compared with the control group [2] | TGI ([3]; day 14, AZD9291 20, IN10018 25 mg/kg p.o. QD) | Tumor volume on day 14 ([3]; day 14 after group administration, AZD9291 20, IN10018 25 mg/kg p.o. QD, mean ± standard error of the mean) | release and exposure of Calreticulin after FAK silencing [4] | condition of cells under microscope [1, 6] | condition of cells under microscope [1, 7]
C=CC(=O)Nc1cc(Nc2nccc(-c3cn(C)c4ccccc34)n2)c(OC)cc1N(C)CCN(C)C [AZD9291, Osimertinib] | poor condition | significantly enhanced | 24.4% | 1518.1±728.8 mm^3 | significantly enhanced | – | –
C=CC(=O)Nc1cc(Nc2nccc(-c3cn(C)c4ccccc34)n2)c(OCC(F)(F)F)nc1N(C)CCN(C)C [Alflutinib] | – | – | – | – | – | poor condition | –
C=CC(=O)Nc1cc(Nc2nccc(-c3cn(C4CC4)c4ccccc34)n2)c(OC)cc1N(C)CCN(C)C [Almonertinib] | – | – | – | – | – | – | poor condition
COc1cc(C(=O)NC2CCN(C)CC2)c(F)cc1Nc1ncc(C(F)(F)F)c(Oc2cccc3c2C(=O)N(C)C3)n1 [IN10018] | better condition | – | – | – | – | better condition | better condition
